Assay [1] in a line: Superoxide anion scavenging test (NADH/PMS generation, NBT reduction to diformazan, spectrophotometry). The class given is biochemical. The note with it: for concentration donnant 90 % d'inhibition: 90 % inhibition of diformazan coloration. From the text: On a également testé l'activité anti-radicalaire sur l'anion superoxyde généré par la réaction de NADH (nicotinamide adénine dinucléotide hydrate) sur le PMS (phénazine méthosulfate). L'anion superoxyde provoque la réduction du NBT (Nitrobleu de Tétrazolium) en diformazan, de coloration bleu intense. On dose celui-ci par spectrophotométrie (Roback J., Gryglewski RJ., Biomedical Pharmacology, 1988, 37, (5), P. 837-841). On exprime l'activité anti-radicalaire d'une substance en pourcentage d'inhibition du développement de coloration due au diformazan. Par cette méthode de dosage, les extraits d'Alchemille présentent une activité bien supérieure aux 2 témoins testés, qui sont la quercétine et l'acide rosmarinique. Ainsi, on obtient 90 % d'inhibition avec des concentrations respectivement de 0,5 mg/ml d'acide rosmarinique et de quercétine, alors qu'on atteint ce niveau d'inhibition à une concentration de 0,1 mg/ml d'extrait aqueux d'Alchemille. Cet extrait est donc, dans ces conditions, 5 fois plus actif que les 2 témoins qui sont les plus actifs parmi les substances testées.

Assay [2] is described as follows: Free radical scavenging test on diphénylpicrylhydrazyl hydrate (decrease of absorbance at 513 nm). The class given is biochemical. From the text:
Les extraits d'Alchemille obtenus selon l'invention présentent également des activités anti-radicalaires. On a démontré ces activités in vitro par deux méthodes de dosage. On a réalisé la première méthode de dosage sur un radical libre : le diphénylpicrylhydrazyl hydrate qui absorbe dans le violet à 513 nm. (Lamaison JL., Petitjean-Freytet C., Carnat P., Carnat A., 1988, Plantes Médicinales et Phytothérapie, 22, (4), p. 231-234). Un composé anti-radicalaire, piégeur des radicaux libres, entraîne une inhibition d'apparition de coloration du radical libre témoin, donc une diminution de la densité optique de ce radical libre. L'activité anti-radicalaire d'une substance s'exprime par la diminution du pourcentage d'absorbance du radical libre testé.Dans ces conditions de test, un extrait d'Alchemille obtenu selon l'invention présente une activité similaire à la vitamine E qui est la substance de référence la plus utilisée.

`O=C(/C=C/c1ccc(O)c(O)c1)O[C@H](Cc1ccc(O)c(O)c1)C(=O)O` [Acide rosmarinique]: the “concentration donnant 90 % d'inhibition” value in assay [1] was 0,5 mg/ml. Further, the INHIBITION % is listed as 2% in assay [1] (concentration 0,01 mg/ml); 59% in assay [1] (concentration 0,1 mg/ml); 28% in assay [1] (concentration 0,05 mg/ml); 90% in assay [1] (concentration 0,5 mg/ml); 99% in assay [1] (concentration 1 mg/ml).

In the case of Vitamine E, the INHIBITION % amounted to 9% in assay [2] (concentration 0,01 mg/ml); 61% in assay [2] (concentration 0,1 mg/ml); 28% in assay [2] (concentration 0,05 mg/ml); 95% in assay [2] (concentration 0,5 mg/ml); 96% in assay [2] (concentration 1 mg/ml).

In the case of `O=C(/C=C/c1ccc(O)c(O)c1)OC1CC(OC(=O)/C=C/c2ccc(O)c(O)c2)(C(=O)O)CC(O)C1O` (centres unmarked) [Cynarine], the “activité anti-radicalaire (comparison in words)” value in assay [2] (compared with vitamine E) is “activité légèrement supérieure à la vitamine E”. Also, the INHIBITION % in assay [2] (concentration 0,01 mg/ml) was found to be 16%; in assay [2] (concentration 0,1 mg/ml), 89%; in assay [2] (concentration 0,05 mg/ml), 60%; in assay [2] (concentration 0,5 mg/ml) it was 94%; in assay [2] (concentration 1 mg/ml), 96%.

Take `O=c1c(O)c(-c2ccc(O)c(O)c2)oc2cc(O)cc(O)c12` [Quercétine]: the “concentration donnant 90 % d'inhibition” value in assay [1] was 0,5 mg/ml. Besides, the INHIBITION % in assay [1] (concentration 0,01 mg/ml) stood at 1%; in assay [1] (concentration 0,1 mg/ml), 69%; in assay [1] (concentration 0,05 mg/ml), 31%; in assay [1] (concentration 0,5 mg/ml), 91%; in assay [1] (concentration 1 mg/ml), 98%.
